The supplement of paper PMC6045584
± gives the standard deviation of the averaged measurements.

Assays:
SOTRASTAURIN/AEB071 = compound: CN1CCN(c2nc(C3=C(c4c[nH]c5ccccc45)C(=O)NC3=O)c3ccccc3n2)CC1 [SOTRASTAURIN/AEB071]; test: surviving fraction relative to DMSO-only wells; higher = less growth inhibition; details: exposure time: 5 days
Outline: (§1)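 Tumour cell lines in log phase were plated in 384-well plates at 250–500 cells per well, then, after 24 hours, exposed continuously for five days to inhibitors at 0.5, 1, 5, 10, 50, 100, 500 and 1000 nM. Viability came from CellTiter-Glo luminescence, and surviving fraction is that signal normalised to the median of DMSO-only wells. Plates were read after 10 minutes at room temperature, and each line, screened three times, was kept only when replicate Pearson r was >0.7 and median Z' was >0.3.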

ABIRATERONE = compound: C[C@]12CC[C@H](O)CC1=CC[C@@H]1[C@@H]2CC[C@]2(C)C(c3cccnc3)=CC[C@@H]12 [ABIRATERONE]; test: as above; details: exposure time: 5 days
Outline: as §1

Test System | surviving fraction (SOTRASTAURIN/AEB071; 0.5 nM) | surviving fraction (SOTRASTAURIN/AEB071; 1 nM) | surviving fraction (SOTRASTAURIN/AEB071; 5 nM) | surviving fraction (SOTRASTAURIN/AEB071; 10 nM) | surviving fraction (SOTRASTAURIN/AEB071; 50 nM) | surviving fraction (SOTRASTAURIN/AEB071; 100 nM) | surviving fraction (SOTRASTAURIN/AEB071; 500 nM) | surviving fraction (SOTRASTAURIN/AEB071; 1000 nM) | surviving fraction (ABIRATERONE; 0.5 nM) | surviving fraction (ABIRATERONE; 1 nM) | surviving fraction (ABIRATERONE; 5 nM) | surviving fraction (ABIRATERONE; 10 nM) | surviving fraction (ABIRATERONE; 50 nM) | surviving fraction (ABIRATERONE; 100 nM) | surviving fraction (ABIRATERONE; 500 nM) | surviving fraction (ABIRATERONE; 1000 nM)
NOS1 BONE | 1.05 ± 0.087 | 1 ± 0.084 | 1.14 ± 0.12 | 1.08 ± 0.071 | 0.974 ± 0.095 | 1 ± 0.037 | 0.899 ± 0.035 | 1 ± 0.037 | 1.27 ± 0.16 | 1.05 ± 0.044 | 1.23 ± 0.089 | 1.22 ± 0.099 | 1.19 ± 0.15 | 1.24 ± 0.17 | 1.2 ± 0.095 | 0.999 ± 0.04
NY BONE | 0.99 ± 0.041 | 0.971 ± 0.023 | 1.08 ± 0.002 | 1.03 ± 0.048 | 1.11 ± 0.022 | 1.09 ± 0.043 | 1.07 ± 0.051 | 1.106 ± 0.0067 | 1.05 ± 0.021 | 1.06 ± 0.029 | 1.08 ± 0.034 | 1.1 ± 0.059 | 1.105 ± 0.011 | 1.09 ± 0.032 | 1.08 ± 0.027 | 1.06 ± 0.028
OS25HAL BONE | 1.02 ± 0.057 | 1.006 ± 0.0082 | 1.03 ± 0.039 | 1.03 ± 0.014 | 1.09 ± 0.018 | 1.04 ± 0.042 | 1.09 ± 0.025 | 1.03 ± 0.038 | 1.02 ± 0.02 | 1.01 ± 0.011 | 1.039 ± 0.0055 | 0.989 ± 0.021 | 1.106 ± 0.0096 | 1.08 ± 0.017 | 1.07 ± 0.053 | 1.07 ± 0.034
OSHN BONE | 1.01 ± 0.049 | 0.989 ± 0.042 | 1.03 ± 0.044 | 1.02 ± 0.026 | 1.03 ± 0.021 | 0.979 ± 0.01 | 1 ± 0.0049 | 0.998 ± 0.014 | 1.13 ± 0.021 | 1.102 ± 0.009 | 1.12 ± 0.022 | 1.09 ± 0.029 | 1.13 ± 0.016 | 1.13 ± 0.031 | 1.11 ± 0.017 | 1.09 ± 0.024
PCI30 HEADNECK | 0.958 ± 0.054 | 0.951 ± 0.062 | 1.07 ± 0.044 | 0.991 ± 0.083 | 1.05 ± 0.067 | 1.02 ± 0.072 | 1.07 ± 0.093 | 1.18 ± 0.1 | 1.12 ± 0.065 | 1.03 ± 0.091 | 1.11 ± 0.018 | 1.12 ± 0.068 | 1.18 ± 0.071 | 1.04 ± 0.013 | 1.04 ± 0.11 | 1.03 ± 0.065
RDES SOFT TISSUE | 1.16 ± 0.061 | 1.22 ± 0.13 | 1.04 ± 0.13 | 1.05 ± 0.12 | 0.953 ± 0.017 | 0.871 ± 0.056 | 0.987 ± 0.075 | 1.01 ± 0.13 | 1.19 ± 0.14 | 1.18 ± 0.12 | 1.21 ± 0.15 | 1.13 ± 0.11 | 1.2 ± 0.25 | 1.22 ± 0.25 | 1.28 ± 0.23 | 1.36 ± 0.27
S68 BREAST | 1.01 ± 0.3 | 1.06 ± 0.074 | 1.04 ± 0.15 | 1.53 ± 0.22 | 0.832 ± 0.079 | 0.909 ± 0.13 | 0.891 ± 0.12 | 1.08 ± 0.26 | 0.939 ± 0.22 | 0.785 ± 0.063 | 1.21 ± 0.21 | 0.925 ± 0.098 | 1.17 ± 0.021 | 1.17 ± 0.092 | 0.942 ± 0.15 | 0.878 ± 0.17
SAOS2 BONE | 1.11 ± 0.024 | 1.06 ± 0.082 | 1.14 ± 0.054 | 1.12 ± 0.023 | 0.9 ± 0.069 | 0.836 ± 0.066 | 0.831 ± 0.079 | 0.839 ± 0.14 | 1.1 ± 0.015 | 1.16 ± 0.11 | 1.23 ± 0.041 | 1.16 ± 0.018 | 1.183 ± 0.0029 | 1.24 ± 0.04 | 1.204 ± 0.012 | 1.1 ± 0.017
SCC003 HEADNECK | 1.06 ± 0.027 | 1.01 ± 0.12 | 1.1 ± 0.026 | 1.04 ± 0.061 | 1.08 ± 0.13 | 0.949 ± 0.081 | 0.998 ± 0.14 | 1.04 ± 0.099 | 1.15 ± 0.044 | 1.11 ± 0.14 | 1.09 ± 0.08 | 1.14 ± 0.065 | 1.27 ± 0.084 | 1.13 ± 0.088 | 1.19 ± 0.042 | 1.1 ± 0.034
SCC36 HEADNECK | 1.03 ± 0.063 | 0.903 ± 0.069 | 1.03 ± 0.068 | 1.027 ± 0.0046 | 0.843 ± 0.039 | 0.77 ± 0.033 | 0.838 ± 0.033 | 0.77 ± 0.048 | 1.04 ± 0.094 | 1.09 ± 0.022 | 1.24 ± 0.08 | 1.14 ± 0.072 | 1.15 ± 0.046 | 1.1 ± 0.15 | 1.02 ± 0.061 | 1.02 ± 0.034
SCC47 HEADNECK | 1.04 ± 0.046 | 1.12 ± 0.12 | 1.16 ± 0.062 | 1.13 ± 0.14 | 1.06 ± 0.07 | 1.08 ± 0.046 | 1 ± 0.031 | 1.05 ± 0.13 | 1.18 ± 0.061 | 1.11 ± 0.027 | 1.17 ± 0.061 | 1.19 ± 0.1 | 1.22 ± 0.13 | 1.36 ± 0.098 | 1.25 ± 0.093 | 1.17 ± 0.077
SCC90 HEADNECK | 1.05 ± 0.063 | 0.997 ± 0.066 | 0.925 ± 0.099 | 1.01 ± 0.1 | 0.87 ± 0.037 | 0.875 ± 0.028 | 0.708 ± 0.033 | 0.676 ± 0.072 | 1.26 ± 0.13 | 1.09 ± 0.15 | 1.25 ± 0.14 | 1.23 ± 0.18 | 1.21 ± 0.04 | 1.28 ± 0.1 | 1.23 ± 0.11 | 1.17 ± 0.062
SG27 HEADNECK | 1.1 ± 0.093 | 1.11 ± 0.04 | 0.984 ± 0.051 | 0.984 ± 0.1 | 1.13 ± 0.13 | 1.1 ± 0.041 | 1.15 ± 0.058 | 1.26 ± 0.1 | 1.09 ± 0.064 | 0.971 ± 0.11 | 1.05 ± 0.067 | 0.927 ± 0.039 | 0.867 ± 0.066 | 0.997 ± 0.08 | 0.957 ± 0.14 | 0.985 ± 0.07
SG28 HEADNECK | 1.116 ± 0.011 | 1.107 ± 0.0035 | 0.956 ± 0.12 | 1.024 ± 0.0085 | 0.821 ± 0.039 | 0.79 ± 0.14 | 0.8065 ± 0.0078 | 0.843 ± 0.088 | 1.11 ± 0.046 | 1.08 ± 0.11 | 1.02 ± 0.048 | 1.04 ± 0.12 | 1.02 ± 0.18 | 1.07 ± 0.043 | 1.01 ± 0.066 | 1.04 ± 0.13
SG31 HEADNECK | 1.28 ± 0.26 | 1 ± 0.12 | 1.25 ± 0.26 | 1.12 ± 0.23 | 0.935 ± 0.12 | 1.03 ± 0.12 | 1.11 ± 0.12 | 1.14 ± 0.032 | 1.21 ± 0.14 | 1.11 ± 0.19 | 1.09 ± 0.12 | 0.866 ± 0.035 | 1.06 ± 0.13 | 0.997 ± 0.03 | 1.13 ± 0.23 | 0.981 ± 0.065
SG32 HEADNECK | 0.943 ± 0.088 | 1.13 ± 0.18 | 1.09 ± 0.22 | 1.05 ± 0.057 | 0.792 ± 0.084 | 0.698 ± 0.27 | 0.827 ± 0.13 | 0.795 ± 0.08 | 1.18 ± 0.12 | 1.29 ± 0.2 | 1.13 ± 0.2 | 1.22 ± 0.11 | 1.15 ± 0.05 | 1.17 ± 0.12 | 1.13 ± 0.16 | 1.21 ± 0.19
